Patent publication US11839610B2 (priority 2022, dated 2023)
Where two headings read alike, the source gives them in different places.

Test system: D614G S protein pseudovirus (nCoV-S-Luc-D614G) in ACE2-293T cells
Assay type: cell-based, SARS-CoV-2

COc1cc2c3cc1Oc1c4c(cc5c1[C@H](Cc1ccc(cc1)Oc1cc(ccc1O)C[C@H]3N(C)CC2)N(C)CC5)OCO4 [Cepharanoline]
Levels of viral infection, D614G, Ave. (Conc. 0.1 μM): 72.97%
Levels of viral infection, D614G, Ave. (Conc. 1 μM): 39.14%
Levels of viral infection, D614G, Ave. (Conc. 10 μM): −20.02%
IC50 (read-out: 50% inhibitory concentrations (IC50) for viral infection, D614G): 480 ± 90 nM
